# Molecular target: T1, CYP2C8 (Homo sapiens, UniProt P10632)
# T1 construct: tissue Corning or Xenotech; host or cells: human liver microsomes
# T1 sequence (P10632 1-490): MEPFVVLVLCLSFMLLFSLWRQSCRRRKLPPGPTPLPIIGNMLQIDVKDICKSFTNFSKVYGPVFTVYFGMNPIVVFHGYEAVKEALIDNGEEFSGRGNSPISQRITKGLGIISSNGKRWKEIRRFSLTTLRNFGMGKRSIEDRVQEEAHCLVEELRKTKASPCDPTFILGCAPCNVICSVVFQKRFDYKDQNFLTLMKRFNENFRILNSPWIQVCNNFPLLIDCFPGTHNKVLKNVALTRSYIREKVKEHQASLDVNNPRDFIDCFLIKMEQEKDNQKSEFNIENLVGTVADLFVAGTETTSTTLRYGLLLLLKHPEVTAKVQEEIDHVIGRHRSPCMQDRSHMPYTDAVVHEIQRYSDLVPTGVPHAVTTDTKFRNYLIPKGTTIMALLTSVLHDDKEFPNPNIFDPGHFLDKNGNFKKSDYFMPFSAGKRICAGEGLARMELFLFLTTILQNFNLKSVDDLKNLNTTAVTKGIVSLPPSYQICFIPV
# Experiment: CYP450 inhibition in human liver microsomes, CYP2C8
# Format: in vitro ADME
# Details: pH 7.4, read-out: % CYP inhibition @ 10 µM 2C8
# Excerpt: According to standard methods in the field for the study of cytochrome P450 enzyme systems, such as the method described in Kerns, Edward H. and Di Li et al., Drug-like Properties: Concepts, Structure Design and Methods: from ADME to Toxicity Optimization (2008), San Diego, Academic Press, and Lin, Tong et al., In Vitro Assessment of Cytochrome P450 Inhibition: Strategies for Increasing LC/MS-Based Assay Throughput Using a One-Point IC50 Method and Multiplexing High-Performance Liquid Chromatography (J. Pharm. Sci. 2007, 96 (9), 2485). The inhibitory effect of the disclosed compounds on the cytochrome P450 enzyme system was similarly examined below.
# Human liver microsomes were purchased from Corning or Xenotech. The test compounds were evaluated by detecting the metabolism of substrates for different Cyp450 isoforms by human liver microsomes.
# 0.1 M potassium phosphate buffer (K-buffer, pH 7.4) was pre-warmed.
# 100 mM K-buffer was prepared by mixing 9.5 mL of stock solution A (1 M potassium dihydrogen phosphate, prepared by dissolving 136.5 g of potassium dihydrogen phosphate in 1 L of Milli-Q water) with 40.5 mL of stock solution B (1 M potassium hydrogen phosphate, prepared by dissolving 174.2 g of potassium hydrogen phosphate in 1 L of Milli-Q water). The total volume was adjusted to 500 mL with Milli-Q water, and the buffer was titrated to pH 7.4 using KOH or H3PO4.
# Test compound solution and specific inhibitor solution (400× dilution) were prepared in a 96-well plate. For the test compound, 8 µL of 10 mM test compound was transferred into 12 µL of ACN. For specific inhibitors of CYP1A2, CYP2C9, and CYP2D6: 12 µL of 1 mM α-naphthoflavone, 10 µL of 40 mM sulfaphenazole, 10 µL of 10 mM quinidine, and 8 µL of DMSO were mixed. For specific inhibitors of CYP3A4, CYP2B6, CYP2C8, and CYP2C19: 8 µL of DMSO stock solution was added to 12 µL of ACN.
# A 4× diluted NADPH solution was prepared by dissolving 66.7 mg of NADPH in 10 mL of 0.1 M K-buffer (pH 7.4). […]
row,"inhibition at 10 min, 10 µM [%]",Compound
1,43.8,O=C(Nc1ccc(-c2cc3cc(F)c(-c4nnn[nH]4)cc3n2C2CCC2)cc1)C(=O)Nc1ccc(N2CCC(CO)CC2)cc1 [Example 23]
2,42.1,CC1(n2c(-c3ccc(NC(=O)C(=O)Nc4ccc(N5CCC6(CCOC6)CC5)cc4)cc3)cc3cc(F)c(-c4nnn[nH]4)cc32)CCC1 [Example 68]
3,39.2,O=C(Nc1ccc(-c2cc3cc(F)c(-c4nnn[nH]4)cc3n2C2CCC2)cc1)C(=O)Nc1ccc(N2CCC3(CCOC3)CC2)cc1 [Example 67]
